Assay results from patent US9617282B2, “Macrocyclic compounds as IRAK4 inhibitors for the treatment of inflammatory diseases” (BIOGEN MA INC., priority 2013, dated 2017).
pIC50: −log10 of the molar value. Like-named read-outs stand apart in the source and are kept apart here.

Target: IRAK4 (Homo sapiens (Human), UniProt Q9NWZ3)
Experiment: IRAK-4 biochemical kinase assay, AlphaScreen format
Procedure: The biochemical assay is in a AlphaScreen format. The kinase reaction is based on the IRAK-4 phosphorylation of a biotin labeled peptide. The phosphopeptide is incubated with anti-phosphothreonine antibody as well as streptavidin- and protein A-coated beads. Binding of the protein-A coated beads to the antibody and the streptavidin beads to the peptide, leads to an energy transfer from one bead to the other, ultimately producing a luminescent/fluorescent signal.

[1] = 1 nM IRAK4, 1.6 μM peptide, 10 μM ATP, 3.5 h at RT, class symbols
[2] = 1 nM IRAK4, 1.6 μM peptide, 10 μM ATP, 3.5 h at RT, given as numeric bound

IRAK4, sequence (Q9NWZ3 whole entry, species assumed): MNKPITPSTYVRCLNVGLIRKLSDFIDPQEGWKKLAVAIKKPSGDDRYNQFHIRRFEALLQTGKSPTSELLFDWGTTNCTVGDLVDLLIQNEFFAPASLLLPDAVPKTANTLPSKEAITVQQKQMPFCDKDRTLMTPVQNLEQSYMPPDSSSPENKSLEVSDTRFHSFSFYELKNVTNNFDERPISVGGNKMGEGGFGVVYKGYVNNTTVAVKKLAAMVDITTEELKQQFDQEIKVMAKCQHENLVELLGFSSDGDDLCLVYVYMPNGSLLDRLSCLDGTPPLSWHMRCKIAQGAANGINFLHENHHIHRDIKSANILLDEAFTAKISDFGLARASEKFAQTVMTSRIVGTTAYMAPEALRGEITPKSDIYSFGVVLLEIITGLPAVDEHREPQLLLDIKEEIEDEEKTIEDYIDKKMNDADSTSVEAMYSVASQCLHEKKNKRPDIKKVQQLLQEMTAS

SMILES	pIC50 [1]	further results
O=C1c2csc(n2)-c2ccnc(c2)OCCCCOCC2CCCN12 (centres unmarked) [Example 106]	> 5.00	–
O=C1NCC(c2ccccc2)OCCCCCNc2cc(ccn2)-c2nc1co2 (centres unmarked) [Example 76]	> 7.00	–
CNC(=O)c1ccc2c(c1)NC(=O)c1csc(n1)-c1ccnc(c1)NCCCCCO2 [Compound 17]	> 7.00	–
O=C1c2coc(n2)-c2ccncc2OCCCN1CCCN1CCCCC1 [Example 102]	–	pIC50 [2]: < 5.00
O=C1Nc2cn(C3CCOCC3)nc2C(=O)NCCCCCn2cc(cn2)-c2nc1co2 [Compound 42]	> 6.00	–
CN(C)CCN1CCCCCCOc2cc(ccn2)-c2nc(co2)C1=O [Compound 54]	> 6.00	–
O=C1c2coc(n2)-c2ccnc(c2)OCCCCOCC2CCCN12 (centres unmarked) [Example 104]	> 5.00	–
Cn1cc2c(n1)C(=O)NCCCCCc1cc(ccn1)-c1nc(cn1COCC[Si](C)(C)C)C(=O)N2 [Example 99]	> 5.00	–
O=C1Nc2cn(C3CCOCC3)nc2C(=O)NC(CCOCc2ccccc2)C(=O)NCCCc2cc(ccn2)-c2nc1cs2 (centres unmarked) [Example 199]	–	pIC50 [2]: < 5.00
CCn1cc(N2CCCCCCOc3cc(ccn3)-c3nc(co3)C2=O)cn1 [Compound 50]	–	pIC50 [2]: < 5.00
NCCC(=O)N1CCCc2cc(ccn2)-c2nc(cs2)C(=O)Nc2cn(C3CCOCC3)nc2C(=O)NCC1 [Example 178]	> 7.00	–
CCN1CCCCCCCCN(CC)c2cc(ccn2)-c2nc(cs2)C1=O [Example 65]	> 5.00	–
O=C1Nc2ccccc2OCC/C=C/COc2cc(ccn2)-c2nc1co2 [Example 1]	> 7.00	–
O=C1Nc2ccccc2OCCCCCCCn2cc(cn2)-c2nc1co2 [Compound 8]	> 7.00	–
O=C1c2coc(n2)-c2ccnc(c2)NCCCCCOCC2CCCN12 (centres unmarked) [Compound 59]	> 7.00	–
O=C1Nc2cn(C3CCOCC3)nc2C(=O)NC(CCO)C(=O)NCCCc2cc(ccn2)-c2nc1cs2 (centres unmarked) [Example 198]	> 5.00	–
CN1CCCOc2cnccc2-c2nc(cs2)C1=O [Example 100]	–	pIC50 [2]: < 5.00
O=C1c2coc(n2)-c2ccnc(c2)OCCCCCCN1Cc1ccccc1 [Compound 51]	> 5.00	–
CN1CCCCCOc2ccccc2NC(=O)c2coc(n2)-c2ccnc1c2 [Compound 11]	> 6.00	–
CN(C)CCNC(=O)c1ccc2c(c1)OCCCCCNc1cc(ccn1)-c1nc(cs1)C(=O)N2 [Compound 25]	> 7.00	–
CN(C)CCC(=O)N1CCCc2cc(ccn2)-c2nc(cs2)C(=O)Nc2cn(C3CCOCC3)nc2C(=O)NCC1 [Example 177]	> 7.00	–
Cn1cc2c(n1)C(=O)NCCCCCn1cc(cn1)-c1nc(co1)C(=O)N2 [Compound 41]	> 6.00	–
CCN1CCCCCCOc2cc(ccn2)-c2nc(co2)C1=O [Compound 53]	> 7.00	–
Cn1cc2c(n1)C(=O)NCCCCOc1cc(ccn1)-c1nc(cn1COCC[Si](C)(C)C)C(=O)N2 [Example 94]	–	pIC50 [2]: < 5.00
O=C1Nc2cn(C3CCOCC3)nc2C(=O)NCCN(C(=O)C2CCOCC2)CCCc2cc(ccn2)-c2nc1cs2 [Example 190]	> 7.00	–
O=C1c2coc(n2)-c2ccnc(c2)OCCCCCCN1CCN1CCCCC1 [Compound 56]	–	pIC50 [2]: < 5.00
NC(=O)CCC1NC(=O)c2nn(C3CCOCC3)cc2NC(=O)c2csc(n2)-c2ccnc(c2)CCCNC1=O (centres unmarked) [Example 195]	> 6.00	–

SMILES	pIC50 [1]	further results
O=C1NCCCCCCCCNc2cc(ccn2)-c2nc1cs2 [Example 64]	> 6.00	–
O=C(NCCN1CCCCC1)c1ccc2c(c1)NC(=O)c1csc(n1)-c1ccnc(c1)NCCCCCO2 [Compound 18]	> 7.00	–
O=C1Nc2cn(C3CCOCC3)nc2C(=O)NCCN(C(=O)C2CC2)CCCc2cc(ccn2)-c2nc1cs2 [Example 184]	> 7.00	–
CCOC(=O)CN1CCCc2cc(ccn2)-c2nc(cs2)C(=O)Nc2cn(C3CCOCC3)nc2C(=O)NCC1 [Example 176]	–	pIC50 [2]: < 5.00
CN(C)C1CCN(C(=O)c2ccc3c(c2)NC(=O)c2csc(n2)-c2ccnc(c2)NCCCCCO3)C1 (centres unmarked) [Compound 21]	> 7.00	–
NC(=O)c1ccc2c(c1)NC(=O)c1csc(n1)-c1ccnc(c1)NCCCCCO2 [Compound 24]	> 7.00	–
O=C1Nc2ccccc2OCCCCCCCn2cc(cn2)-c2nc1cs2 [Compound 6]	–	pIC50: > 6.00
O=C1Nc2ccc(CCCN3CCCCC3)cc2OCCCCCNc2cc(ccn2)-c2nc1cs2 [Compound 27]	> 7.00	–
CNC(=O)N1CCCc2cc(ccn2)-c2nc(cs2)C(=O)Nc2cn(C3CCOCC3)nc2C(=O)NCC1 [Example 186]	> 7.00	–
CN(C)CCCN1CCCCCCOc2cc(ccn2)-c2nc(co2)C1=O [Compound 55]	–	pIC50 [2]: < 5.00
O=C(CCC1NC(=O)c2nn(C3CCOCC3)cc2NC(=O)c2csc(n2)-c2ccnc(c2)CCCNC1=O)NCc1ccccc1 (centres unmarked) [Example 193]	> 6.00	–
O=C1NCC2CCCC(C2)OCCCNc2cc(ccn2)-c2nc1cs2 (centres unmarked) [Example 80]	> 5.00	–
O=C1NCc2ccc(cc2)OCCOc2cc(ccn2)-c2nc1co2 [Example 78]	> 5.00	–
Cn1cc2c(n1)C(=O)NCCOCCOc1cc(ccn1)C1=CC=C(S1)C(=O)N2 [Example 205]	–	pIC50 [2]: < 5.00
CC1CCCCOc2ccccc2NC(=O)c2coc(n2)-c2ccnc(c2)N1 (centres unmarked) [Compound 10]	> 7.00	–
CN(C)C(=O)N1CCCc2cc(ccn2)-c2nc(cs2)C(=O)Nc2cn(C3CCOCC3)nc2C(=O)NCC1 [Example 187]	> 6.00	–
CCN1CCCCCCCCNC(=O)c2csc(n2)-c2ccnc1c2 [Example 67]	> 6.00	–
NC(=O)CCN1CCCc2cc(ccn2)-c2nc(cs2)C(=O)Nc2cn(C3CCOCC3)nc2C(=O)NCC1 [Example 181]	> 7.00	–
CCNC(=O)N1CCCc2cc(ccn2)-c2nc(cs2)C(=O)Nc2cn(C3CCOCC3)nc2C(=O)NCC1 [Example 191]	> 7.00	–
CC1CNC(=O)c2coc(n2)-c2ccnc(c2)NCCCCCO1 (centres unmarked) [Example 74]	> 5.00	–
O=C1NCCOC2CCC(CC2)CNc2cc(ccn2)-c2nc1cs2 [Example 88]	> 5.00	–
CCOC(=O)CC(=O)N1CCCc2cc(ccn2)-c2nc(cs2)C(=O)Nc2cn(C3CCOCC3)nc2C(=O)NCC1 [Example 189]	> 7.00	–
CN1CCCOc2cnccc2-c2nc(c[nH]2)C1=O [Example 101]	–	pIC50 [2]: < 5.00
CC(C)(CO)C(=O)N1CCCc2cc(ccn2)-c2nc(cs2)C(=O)Nc2cn(C3CCOCC3)nc2C(=O)NCC1 [Example 185]	> 7.00	–
O=C1Nc2ccccc2OCCCCCNc2cc(ccn2)-c2nc1cs2 [Compound 13]	> 7.00	–
O=C1Nc2cn(C3CCOCC3)nc2C(=O)NCCN(C(=O)CCO)CCCc2cc(ccn2)-c2nc1cs2 [Example 188]	> 7.00	–

More lines, main results first:

pIC50 [1]	SMILES	further results
> 7.00	O=C1Nc2cn(C3CCOCC3)nc2C(=O)NCCNCCCc2cc(ccn2)-c2nc1cs2 [Example 168]	–
> 7.00	CN1CCCCNC(=O)c2nn(C3CCOCC3)cc2NC(=O)c2csc(n2)-c2ccnc1c2 [Example 224]	–
> 5.00	Cn1cc2c(n1)C(=O)NCCCCOc1cc(ccn1)-c1nc(c[nH]1)C(=O)N2 [Example 92]	–
> 6.00	Cn1cc2c(n1)C(=O)NCCCCOc1cnccc1-c1nc(co1)C(=O)N2 [Example 62]	–
> 7.00	Cn1cc2c(n1)C(=O)NCCCOCCCc1cc(ccn1)-c1nc(cs1)C(=O)N2 [Example 215]	–
> 7.00	CN1CCOCCNC(=O)c2nn(CCN3CCOCC3)cc2NC(=O)c2csc(n2)-c2ccnc1c2 [Example 220]	–
> 6.00	O=C1Nc2cn(C3CCOCC3)nc2C(=O)NCCOCCOc2cc(ccn2)-c2cc1ccn2 [Example 212]	–
> 7.00	CN1CCOCCNC(=O)c2nn(C)cc2NC(=O)c2csc(n2)-c2ccnc1c2 [Example 222]	–
> 7.00	O=C1CCc2cc(ccn2)-c2nc(cs2)C(=O)Nc2cn(C3CCOCC3)nc2C(=O)NCCN1 [Example 225]	–
> 7.00	Cn1cc2c(n1)C(=O)NCCCCCc1cc(ccn1)-c1nc(co1)C(=O)N2 [Compound 39]	–
> 6.00	CC1NC(=O)c2nn(C3CCOCC3)cc2NC(=O)c2csc(n2)-c2ccnc(c2)CCCNC1=O (centres unmarked) [Example 197]	–
> 7.00	O=C1Nc2cn(C3CCOCC3)nc2C(=O)NCCCCCOc2cc(ccn2)-c2nc1co2 [Compound 38]	–
> 7.00	Cn1cc2c(n1)C(=O)NCCOCCOc1cc(ccn1)-c1cccc(n1)C(=O)N2 [Example 203]	–
> 7.00	CC(C)N1CCCc2cc(ccn2)-c2nc(cs2)C(=O)Nc2cn(C3CCOCC3)nc2C(=O)NCC1 [Example 174]	–
> 7.00	CN1CCCCNC(=O)c2nn(C)cc2NC(=O)c2csc(n2)-c2ccnc1c2 [Example 223]	–
> 7.00	Cn1cc2c(n1)C(=O)NCCOCCOc1cc(ccn1)-c1nc(co1)C(=O)N2 [Compound 35]	–
> 6.00	Cn1cc2c(n1)C(=O)NCCOCCOc1cc(ccn1)-c1cccc(c1)C(=O)N2 [Example 209]	–
> 5.00	Cn1cc2c(n1)C(=O)NCCOCCOc1cc(ccn1)-n1cc(cn1)C(=O)N2 [Example 202]	–
> 7.00	CN1CCOCCNC(=O)c2nn(C3CCOCC3)cc2NC(=O)c2csc(n2)-c2ccnc1c2 [Example 219]	–
> 7.00	O=C1Nc2cn(C3CCNCC3)nc2C(=O)NCCOCCOc2cc(ccn2)-c2nc1cs2 [Example 165]	–
> 6.00	Cn1cc2c(n1)C(=O)NCCC/C=C/CCCN(C(=O)OC(C)(C)C)c1cc(ccn1)-c1nc(co1)C(=O)N2 [Compound 28]	–
> 6.00	O=C1Nc2cn(C3CCOCC3)nc2C(=O)NCCOCCOc2cc(ccn2)-c2csc1n2 [Example 214]	–
> 6.00	O=C1Nc2cn(C3CCOCC3)nc2C(=O)NCCOCCOc2cc(ccn2)-c2cccc1n2 [Example 204]	–
> 7.00	Cn1cc2c(n1)C(=O)NCCCCCOc1cc(ccn1)-c1nc(co1)C(=O)N2 [Compound 37]	–
> 5.00	Cn1cc2c(n1)C(=O)NCCOCCOc1cc(ccn1)-c1csc(n1)C(=O)N2 [Example 213]	–
> 7.00	Cn1cc2c(n1)C(=O)NCCCCNc1cc(ccn1)-c1nc(co1)C(=O)N2 [Compound 31]	–
> 7.00	O=C1CNC(=O)c2nn(C3CCOCC3)cc2NC(=O)c2csc(n2)-c2ccnc(c2)CCCN1 [Example 196]	–
